Test results: publication PMC10673995, “Discovery of a novel cardiac-specific myosin modulator using artificial intelligence-based virtual screening” (Nature Communications, 2023)
Where “and” joins values, the source holds several entries; their conditions need not be identical. Identical values can stand only once.

Biological target: bovine cardiac myofibrils (Bos taurus, UniProt Q9BE39)
Experiment: mant-ATP chase single nucleotide turnover, cardiac myofibrils;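 note: bovine cardiac myofibrils at 1 mg/mL in PIPES buffer, 20 µM mant-ATP aged 1 min then chased with 20 mM ATP, fluorescence (ex 360, em 450 nm) read every second for 15 min at 25 °C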
[1] = Cardiac myofibrils, individual replicates

Chain of bovine cardiac myofibrils (Q9BE39 whole entry): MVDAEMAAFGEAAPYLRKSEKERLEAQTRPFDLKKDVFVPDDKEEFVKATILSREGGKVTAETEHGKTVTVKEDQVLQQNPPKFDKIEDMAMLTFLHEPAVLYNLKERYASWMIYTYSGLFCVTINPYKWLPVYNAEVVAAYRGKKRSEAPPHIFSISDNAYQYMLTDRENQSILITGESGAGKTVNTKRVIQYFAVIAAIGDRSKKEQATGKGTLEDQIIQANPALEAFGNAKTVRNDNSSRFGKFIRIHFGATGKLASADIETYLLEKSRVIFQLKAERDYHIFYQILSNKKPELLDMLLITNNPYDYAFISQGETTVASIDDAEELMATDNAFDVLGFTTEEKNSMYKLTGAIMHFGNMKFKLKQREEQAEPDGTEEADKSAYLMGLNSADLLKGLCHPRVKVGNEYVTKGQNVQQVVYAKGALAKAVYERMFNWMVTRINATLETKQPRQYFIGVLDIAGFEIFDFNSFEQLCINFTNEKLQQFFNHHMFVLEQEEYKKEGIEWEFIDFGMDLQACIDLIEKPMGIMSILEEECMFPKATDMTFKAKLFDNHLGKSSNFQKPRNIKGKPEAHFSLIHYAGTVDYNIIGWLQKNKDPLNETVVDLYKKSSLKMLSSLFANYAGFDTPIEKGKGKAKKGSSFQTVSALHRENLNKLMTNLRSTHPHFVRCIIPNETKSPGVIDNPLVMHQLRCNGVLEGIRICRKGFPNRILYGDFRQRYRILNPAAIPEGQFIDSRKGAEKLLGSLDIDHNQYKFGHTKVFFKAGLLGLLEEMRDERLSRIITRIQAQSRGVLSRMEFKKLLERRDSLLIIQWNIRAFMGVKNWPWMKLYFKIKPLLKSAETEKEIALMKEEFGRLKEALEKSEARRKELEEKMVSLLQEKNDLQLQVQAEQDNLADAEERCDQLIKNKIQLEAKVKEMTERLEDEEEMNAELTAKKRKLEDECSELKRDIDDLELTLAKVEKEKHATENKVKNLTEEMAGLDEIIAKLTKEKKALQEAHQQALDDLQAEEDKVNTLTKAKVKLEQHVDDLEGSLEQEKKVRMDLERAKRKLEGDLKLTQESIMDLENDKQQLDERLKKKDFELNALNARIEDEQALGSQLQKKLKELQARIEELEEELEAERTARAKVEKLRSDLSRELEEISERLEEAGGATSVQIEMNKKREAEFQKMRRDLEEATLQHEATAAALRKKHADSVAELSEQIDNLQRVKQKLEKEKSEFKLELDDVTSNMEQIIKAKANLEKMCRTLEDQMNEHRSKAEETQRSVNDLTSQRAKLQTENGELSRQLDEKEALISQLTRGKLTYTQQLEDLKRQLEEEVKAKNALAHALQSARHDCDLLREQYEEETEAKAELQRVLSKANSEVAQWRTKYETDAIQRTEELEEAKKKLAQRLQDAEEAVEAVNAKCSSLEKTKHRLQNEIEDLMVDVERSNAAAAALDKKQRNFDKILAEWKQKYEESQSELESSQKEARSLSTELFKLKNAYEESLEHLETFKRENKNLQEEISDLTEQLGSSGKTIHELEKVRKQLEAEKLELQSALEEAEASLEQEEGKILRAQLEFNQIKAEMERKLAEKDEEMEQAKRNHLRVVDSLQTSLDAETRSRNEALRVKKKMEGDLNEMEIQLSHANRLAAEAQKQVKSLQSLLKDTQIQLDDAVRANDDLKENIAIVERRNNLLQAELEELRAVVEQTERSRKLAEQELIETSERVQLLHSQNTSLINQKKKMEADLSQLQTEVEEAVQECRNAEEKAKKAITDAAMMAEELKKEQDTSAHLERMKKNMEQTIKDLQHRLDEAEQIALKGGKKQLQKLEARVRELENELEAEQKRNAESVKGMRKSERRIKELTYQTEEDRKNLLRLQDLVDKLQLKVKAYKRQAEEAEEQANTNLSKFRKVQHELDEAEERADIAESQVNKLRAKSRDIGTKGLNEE
Chain of bovine cardiac myofibrils (P85100 whole entry partner): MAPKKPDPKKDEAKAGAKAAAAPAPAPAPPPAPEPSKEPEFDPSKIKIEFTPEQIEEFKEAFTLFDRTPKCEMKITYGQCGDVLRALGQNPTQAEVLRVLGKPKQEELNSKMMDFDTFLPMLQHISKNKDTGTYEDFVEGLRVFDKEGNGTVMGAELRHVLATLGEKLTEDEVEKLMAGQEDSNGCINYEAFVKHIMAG
Chain of bovine cardiac myofibrils (Q3SZE5 whole entry partner): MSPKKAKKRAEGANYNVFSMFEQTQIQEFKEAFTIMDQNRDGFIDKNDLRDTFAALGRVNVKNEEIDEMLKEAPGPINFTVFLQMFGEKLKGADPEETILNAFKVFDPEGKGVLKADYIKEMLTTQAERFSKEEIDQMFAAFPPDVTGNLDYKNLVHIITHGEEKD
Description: We used systems of increasing complexity ranging from the isolated cardiac myosin motor domains (Fig. 3a) to synthetic thick filaments formed from purified full-length bovine cardiac myosin (Fig. 3b) and bovine cardiac myofibrils as substrates in the chase assays (Fig. 3c). In contrast to the isolated myosin motors, synthetic thick filaments contain two myosin head domains per molecule connected via their coiled-coil tail.
Synthetic thick filaments were freshly prepared by diluting full-length bovine cardiac myosin stock into assay buffer (composition in mmol L^−1: 15 PIPES pH 7, 5 MgCl2, 1 DTT) and incubation on ice for 2 h. Bovine myosin S1 and synthetic thick filament concentrations were adjusted to 0.4 μmol L^−1 with assay buffer and 40 μL aliquoted into individual wells of a black 384-well plate (Greiner). Mant-ATP (JenaBioscience) was added to each well to a final concentration of 0.4 μmol L^−1 using an automated injector unit in a ClarioStar Plate Reader (BMG LabTech) and the system was allowed to age for 1 min. The chase phase was started by adding a final concentration of 2 mmol L^−1 ATP using a second automated injector unit. Fluorescence intensity from each well was constantly measured for 15 min every 1 sec at 25 °C with the following settings: excitation at 360 nm with a 20 nm bandwidth and emission at 450 nm with a 20 nm bandwidth. For experiments with cardiac myofibrils the concentration was adjusted to 1 mg m L^−1, and the mant-ATP and ATP concentrations were increased to 20 μmol L^−1 and 20 mmol L^−1, respectively.

CC(C)n1c(=O)cc(N[C@@H](C)c2ccccc2)[nH]c1=O [Mavacamten]
effect on the rate of the fast phase: no effect | kfast (2 μmol L^−1 Mavacamten or 20 μmol L^−1 F10, control 0.0719 ± 0.0193): 0.0637 ± 0.0271 s⁻¹ | kfast [1]: 0.1448 s⁻¹ and 0.0188 s⁻¹ and 0.01818 s⁻¹ and 0.1128 s⁻¹ and 0.02375 s⁻¹ | kslow [1]: 0.005449 s⁻¹ and 0.0002437 s⁻¹ and 0.001429 s⁻¹ and 0.00295 s⁻¹ and 0.003851 s⁻¹ | slow phase [1]: 76.35% and 29.71% and 40.4% and 38.11% and 48.47% | Bar graph (Figure 3c, individual replicates): 76.35 and 29.71 and 40.4 and 38.11 and 48.47 | Representative Traces (t [s] = 6): 0.8107 | Representative Traces (t [s] = 7): 0.8334 | Representative Traces (t [s] = 8): 0.8024 | Representative Traces (t [s] = 9): 0.8319 | Representative Traces (t [s] = 10): 0.793 | Representative Traces (t [s] = 11): 0.7299 | Representative Traces (t [s] = 12): 0.7382 | Representative Traces (t [s] = 13): 0.7429 | Representative Traces (t [s] = 14): 0.7007 | Representative Traces (t [s] = 96): 0.4149 | Representative Traces (t [s] = 97): 0.3828 | Representative Traces (t [s] = 98): 0.3883 | Representative Traces (t [s] = 99): 0.382 | Representative Traces (t [s] = 100): 0.393 | Representative Traces (t [s] = 101): 0.411 | Representative Traces (t [s] = 102): 0.3936 | Representative Traces (t [s] = 103): 0.355 | Representative Traces (t [s] = 104): 0.403 | Representative Traces (t [s] = 105): 0.3774 | Representative Traces (t [s] = 106): 0.4119 | Representative Traces (t [s] = 107): 0.4038 | Representative Traces (t [s] = 108): 0.3884 | Representative Traces (t [s] = 109): 0.3828 | Representative Traces (t [s] = 110): 0.3991 | Representative Traces (t [s] = 111): 0.3974 | Representative Traces (t [s] = 112): 0.3704 | Representative Traces (t [s] = 113): 0.3729 | Representative Traces (t [s] = 114): 0.3757 | Representative Traces (t [s] = 115): 0.3708 | Representative Traces (t [s] = 116): 0.3829 | Representative Traces (t [s] = 117): 0.3692 | Representative Traces (t [s] = 118): 0.3929 | Representative Traces (t [s] = 119): 0.3896 | Representative Traces (t [s] = 120): 0.34 | Representative Traces (t [s] = 121): 0.3562 | Representative Traces (t [s] = 122): 0.3276 | Representative Traces (t [s] = 123): 0.3379 | Representative Traces (t [s] = 124): 0.3372 | Representative Traces (t [s] = 125): 0.3385 | Representative Traces (t [s] = 126): 0.3527 | Representative Traces (t [s] = 127): 0.3498 | Representative Traces (t [s] = 128): 0.3795 | Representative Traces (t [s] = 129): 0.3503 | Representative Traces (t [s] = 130): 0.3889 | Representative Traces (t [s] = 131): 0.3403 | Representative Traces (t [s] = 132): 0.3551 | Representative Traces (t [s] = 133): 0.3408 | Representative Traces (t [s] = 134): 0.3174 | Representative Traces (t [s] = 135): 0.3637 | Representative Traces (t [s] = 136): 0.3269 | Representative Traces (t [s] = 137): 0.3446 | Representative Traces (t [s] = 138): 0.322 | Representative Traces (t [s] = 140): 0.3437 | Representative Traces (t [s] = 141): 0.3145 | Representative Traces (t [s] = 142): 0.3341 | Representative Traces (t [s] = 143): 0.3342 | Representative Traces (t [s] = 144): 0.3241 | Representative Traces (t [s] = 145): 0.353 | Representative Traces (t [s] = 146): 0.3167 | Representative Traces (t [s] = 147): 0.3169 | Representative Traces (t [s] = 150): 0.3343 | Representative Traces (t [s] = 151): 0.3323 | Representative Traces (t [s] = 152): 0.3258 | Representative Traces (t [s] = 153): 0.3279 | Representative Traces (t [s] = 154): 0.3292 | Representative Traces (t [s] = 155): 0.3236 | Representative Traces (t [s] = 156): 0.3153 | Representative Traces (t [s] = 157): 0.312 | Representative Traces (t [s] = 158): 0.3484 | Representative Traces (t [s] = 159): 0.3282 | Representative Traces (t [s] = 160): 0.2877 | Representative Traces (t [s] = 161): 0.3298 | Representative Traces (t [s] = 162): 0.3159 | Representative Traces (t [s] = 164): 0.2984 | Representative Traces (t [s] = 165): 0.3474 | Representative Traces (t [s] = 166): 0.3344 | Representative Traces (t [s] = 167): 0.3033 | Representative Traces (t [s] = 168): 0.3319 | Representative Traces (t [s] = 169): 0.3401 | Representative Traces (t [s] = 170): 0.3298 | Representative Traces (t [s] = 171): 0.3174 | Representative Traces (t [s] = 172): 0.335 | Representative Traces (t [s] = 173): 0.2879 | Representative Traces (t [s] = 174): 0.2744 | Representative Traces (t [s] = 175): 0.3144 | Representative Traces (t [s] = 177): 0.3003 | Representative Traces (t [s] = 180): 0.3087 | Representative Traces (t [s] = 181): 0.2965 | Representative Traces (t [s] = 182): 0.2814 | Representative Traces (t [s] = 183): 0.3178 | Representative Traces (t [s] = 184): 0.3078 | Representative Traces (t [s] = 185): 0.2721 | Representative Traces (t [s] = 186): 0.3115 | Representative Traces (t [s] = 187): 0.2704 | Representative Traces (t [s] = 188): 0.2836 | Representative Traces (t [s] = 189): 0.2816 | Representative Traces (t [s] = 190): 0.2901 | Representative Traces (t [s] = 191): 0.3081 | Representative Traces (t [s] = 192): 0.2598 | Representative Traces (t [s] = 193): 0.2745
